Reference: patent publication US20250313533A1, “QUINOLINE CARBOXYLIC ACID ESTER COMPOUND AND PREPARATION METHOD AND USE THEREOF” (priority 2019, published 2025)

Tests used:
[1] = tested on: pathogenic bacteria causing stem rot in sweet potatoes; assay: In vitro bactericidal activity, stem rot in sweet potatoes; type: cell-based, dikia; conditions: read-out: inhibitory rate; for inhibition at 1 ppm: dosage 1 ppm; for inhibition at 5 ppm: dosage 5 ppm
Procedure: (§1) Under aseptic conditions, equal amounts of NB culture medium were added to test tubes, and fixed amounts of the sample solutions were pipetted into the above test tubes in an ascending order of concentrations, respectively. The mixtures were well mixed and added with equal amounts of a bacterial suspension in log phase.
(§2) Each step of the procedure was repeated 4 times. After mixing, the mixture samples were incubated in the dark in a shaking incubator at 25° C. The OD values were measured when the bacteria were in log phase.

[2] = tested on: pathogenic bacteria causing fire blight in pears; assay: In vitro bactericidal activity, fire blight in pears; type: cell-based, erwinia; conditions: Erwinia, read-out: inhibitory rate; for inhibition at 1 ppm: dosage 1 ppm; for inhibition at 5 ppm: dosage 5 ppm
Procedure: as §1, §2

[3] = tested on: pathogenic bacteria causing black shank in potatoes; assay: In vitro bactericidal activity, black shank in potatoes; type: cell-based; conditions: read-out: inhibitory rate; for inhibition at 1 ppm: dosage 1 ppm; for inhibition at 5 ppm: dosage 5 ppm
Procedure: as §1, §2

[4] = tested on: fruit blotch in watermelons; assay: whole plant or invertebrate; conditions: read-out: efficacy against fruit blotch in watermelons
[5] = tested on: pathogenic bacteria causing bacterial wilt in cassava; assay: organism not typed; type: cell-based; conditions: read-out: inhibitory rate
[6] = tested on: soft rot in Chinese cabbages; assay: whole plant or invertebrate; conditions: 48 h, read-out: efficacy against soft rot in Chinese cabbages
[7] = tested on: stem rot in sweet potatoes; assay: whole plant or invertebrate; conditions: read-out: efficacy against stem rot in sweet potatoes
[8] = tested on: pathogenic bacteria causing fruit blotch in watermelons; assay: In vitro bactericidal activity, fruit blotch in watermelons; type: cell-based, acidovorax; conditions: read-out: inhibitory rate; for inhibition at 1 ppm: dosage 1 ppm; for inhibition at 5 ppm: dosage 5 ppm
Procedure: as §1, §2

[9] = tested on: pathogenic bacteria causing black rot in Chinese cabbages; assay: In vitro bactericidal activity, black rot in Chinese cabbages; type: cell-based, xanthomonas; conditions: Xanthomonas, read-out: inhibitory rate; for inhibition at 1 ppm: dosage 1 ppm; for inhibition at 5 ppm: dosage 5 ppm
Procedure: as §1, §2

cucumber seedlings = assay: Safety for plant growth after application; type: in vivo; conditions: dosage 200 ppm
Source text: Taking indoor potted cucumber seedlings as an example, the influence of the compound disclosed herein on growth rate of plant height, chlorophyll content, leaf area, etc. of crops was mainly evaluated.
The results of safety and health-care effect of the compounds of the present disclosure on cucumber seedlings are shown in the following table 1: […]

[10] = tested on: pathogenic bacteria causing bacterial angular leaf spot in cucumbers; assay: In vitro bactericidal activity, bacterial angular leaf spot in cucumbers; type: cell-based, pseudomonas; conditions: read-out: inhibitory rate; for inhibition at 1 ppm: dosage 1 ppm; for inhibition at 5 ppm: dosage 5 ppm
Procedure: as §1, §2

[11] = tested on: pathogenic bacteria causing bacterial wilt in tobacco; assay: whole plant or invertebrate; type: cell-based, ralstonia; conditions: read-out: inhibitory rate
[12] = tested on: pathogenic bacteria causing bacterial blight in rice; assay: whole plant or invertebrate; type: cell-based, xanthomonas; conditions: read-out: inhibitory rate
black shank in potatoes = assay: Living crops in vivo protective activity, potatoes (root irrigation); conditions: Solanum tuberosum, read-out: efficacy against black shank in potatoes; for pest or weed control at 5 ppm: dosage 5 ppm; for pest or weed control at 10 ppm: dosage 10 ppm
Procedure: Root irrigation was carried out on the potatoes for tests according to the designed concentration of the agents. The dosage for each plant was 200 mL and was kept consistent (also for the control). The black shank bacteria were inoculated on the second day after the application. The results were investigated according to the disease condition.

bacterial blight in rice = assay: whole plant or invertebrate; conditions: Oryza sativa, read-out: efficacy against bacterial blight in rice
[13] = tested on: bacterial wilt in tobacco; assay: whole plant or invertebrate; conditions: Nicotiana tabacum, read-out: efficacy against bacterial wilt in tobacco

Structure (SMILES) | inhibition at 1 ppm [1] | inhibition at 5 ppm [1] | inhibition at 5 ppm [2] | inhibition at 5 ppm [3] | pest or weed control at 5 ppm [4] | pest or weed control at 10 ppm [4] | inhibition at 5 ppm [5] | pest or weed control at 10 ppm [6] | pest or weed control at 5 ppm [7] | pest or weed control at 10 ppm [7] | inhibition at 5 ppm [8] | inhibition at 5 ppm [9] | safety for plant growth (discoloration, necrosis, wilt, malformation) (cucumber seedlings) | inhibition at 5 ppm [10] | inhibition at 5 ppm [11] | inhibition at 5 ppm [12] | pest or weed control at 10 ppm (black shank in potatoes) | pest or weed control at 10 ppm (bacterial blight in rice) | pest or weed control at 5 ppm [13] | pest or weed control at 10 ppm [13] | further results
COCOC(=O)c1cn(C2CC2)c2ccc(F)cc2c1=O [Compound 1, methoxymethyl 1-cyclopropyl-6-fluoro-4-oxo-1,4-dihydroquinoline-3-carboxylate] | ≥ 80% | ≥ 90% | ≥ 90% | ≥ 90% | ≥ 90% | ≥ 90% | ≥ 90% | ≥ 90% | ≥ 90% | ≥ 90% | ≥ 90% | ≥ 90% | safe for plant growth | ≥ 90% | ≥ 90% | ≥ 90% | ≥ 90% | ≥ 90% | ≥ 90% | ≥ 90% | inhibition at 1 ppm [2]: ≥ 80%; inhibition at 1 ppm [3]: ≥ 80%; inhibition at 1 ppm [5]: ≥ 80%; pest or weed control at 5 ppm [6]: ≥ 80%; inhibition at 1 ppm [8]: ≥ 80%; inhibition at 1 ppm [9]: ≥ 80%; inhibition at 1 ppm [10]: ≥ 80%; inhibition at 1 ppm [11]: ≥ 80%; inhibition at 1 ppm [12]: ≥ 80%; pest or weed control at 5 ppm (black shank in potatoes): ≥ 80%; pest or weed control at 5 ppm (bacterial blight in rice): ≥ 80%
CCOCOC(=O)c1cn(C2CC2)c2ccc(F)cc2c1=O [Compound 2] |  | ≥ 90% | ≥ 90% | ≥ 90% | ≥ 90% | ≥ 90% | ≥ 90% | ≥ 90% | ≥ 90% | ≥ 90% | ≥ 90% | ≥ 90% | safe for plant growth | ≥ 90% | ≥ 90% | ≥ 90% | ≥ 90% | ≥ 90% | ≥ 90% | ≥ 90% | 
O=C(OCCCO)c1cn(C2CC2)c2ccc(F)cc2c1=O [Compound 18] | ≥ 80% | ≥ 90% | ≥ 90% | ≥ 90% | ≥ 90% | ≥ 90% | ≥ 90% | ≥ 90% | ≥ 90% | ≥ 90% | ≥ 90% | ≥ 90% | safe for plant growth | ≥ 90% | ≥ 90% | ≥ 90% | ≥ 90% | ≥ 90% | ≥ 90% | ≥ 90% | inhibition at 1 ppm [2]: ≥ 80%; inhibition at 1 ppm [3]: ≥ 80%; inhibition at 1 ppm [5]: ≥ 80%; pest or weed control at 5 ppm [6]: ≥ 80%; inhibition at 1 ppm [8]: ≥ 80%; inhibition at 1 ppm [9]: ≥ 80%; inhibition at 1 ppm [10]: ≥ 80%; inhibition at 1 ppm [11]: ≥ 80%; inhibition at 1 ppm [12]: ≥ 80%; pest or weed control at 5 ppm (black shank in potatoes): ≥ 80%; pest or weed control at 5 ppm (bacterial blight in rice): ≥ 80%
O=C(OCCO)c1cn(C2CC2)c2ccc(Cl)cc2c1=O [Compound 44] | ≥ 80% | ≥ 90% | ≥ 90% | ≥ 90% | ≥ 90% | ≥ 90% | ≥ 90% | ≥ 90% | ≥ 90% | ≥ 90% | ≥ 90% | ≥ 90% | safe for plant growth | ≥ 90% | ≥ 90% | ≥ 90% | ≥ 90% | ≥ 90% | ≥ 90% | ≥ 90% | inhibition at 1 ppm [2]: ≥ 80%; inhibition at 1 ppm [3]: ≥ 80%; inhibition at 1 ppm [5]: ≥ 80%; pest or weed control at 5 ppm [6]: ≥ 80%; inhibition at 1 ppm [8]: ≥ 80%; inhibition at 1 ppm [9]: ≥ 80%; inhibition at 1 ppm [10]: ≥ 80%; inhibition at 1 ppm [11]: ≥ 80%; inhibition at 1 ppm [12]: ≥ 80%; pest or weed control at 5 ppm (black shank in potatoes): ≥ 80%; pest or weed control at 5 ppm (bacterial blight in rice): ≥ 80%
COCCOC(=O)c1cn(C2CC2)c2ccc(Cl)cc2c1=O [Compound 45, 2-methoxyethyl 6-chloro-1-cyclopropyl-4-oxo-1,4-dihydroquinoline-3-carboxylate] | ≥ 90% | ≥ 90% | ≥ 90% | ≥ 90% | ≥ 90% | ≥ 90% | ≥ 90% | ≥ 90% | ≥ 90% | ≥ 90% | ≥ 90% | ≥ 90% | safe for plant growth | ≥ 90% | ≥ 90% | ≥ 90% | ≥ 90% | ≥ 90% | ≥ 90% | ≥ 90% | inhibition at 1 ppm [2]: ≥ 90%; inhibition at 1 ppm [3]: ≥ 90%; inhibition at 1 ppm [5]: ≥ 90%; pest or weed control at 5 ppm [6]: ≥ 80%; inhibition at 1 ppm [8]: ≥ 90%; inhibition at 1 ppm [9]: ≥ 90%; inhibition at 1 ppm [10]: ≥ 90%; inhibition at 1 ppm [11]: ≥ 90%; inhibition at 1 ppm [12]: ≥ 90%; pest or weed control at 5 ppm (black shank in potatoes): ≥ 80%; pest or weed control at 5 ppm (bacterial blight in rice): ≥ 80%
O=C(OCCOC1CC1)c1cn(C2CC2)c2cc(Cl)c(F)cc2c1=O [Compound 160] | ≥ 80% | ≥ 90% | ≥ 90% | ≥ 90% | ≥ 90% | ≥ 90% | ≥ 90% | ≥ 90% | ≥ 90% | ≥ 90% | ≥ 90% | ≥ 90% | safe for plant growth | ≥ 90% | ≥ 90% | ≥ 90% | ≥ 90% | ≥ 90% | ≥ 90% | ≥ 90% | inhibition at 1 ppm [2]: ≥ 80%; inhibition at 1 ppm [3]: ≥ 80%; inhibition at 1 ppm [5]: ≥ 80%; pest or weed control at 5 ppm [6]: ≥ 80%; inhibition at 1 ppm [8]: ≥ 80%; inhibition at 1 ppm [9]: ≥ 80%; inhibition at 1 ppm [10]: ≥ 80%; inhibition at 1 ppm [11]: ≥ 80%; inhibition at 1 ppm [12]: ≥ 80%; pest or weed control at 5 ppm (black shank in potatoes): ≥ 80%; pest or weed control at 5 ppm (bacterial blight in rice): ≥ 80%
O=C(OCCCCO)c1cn(C2CC2)c2cc(Cl)c(F)cc2c1=O [Compound 177] | ≥ 90% | ≥ 90% | ≥ 90% | ≥ 90% | ≥ 90% | ≥ 90% | ≥ 90% | ≥ 90% | ≥ 90% | ≥ 90% | ≥ 90% | ≥ 90% | safe for plant growth | ≥ 90% | ≥ 90% | ≥ 90% | ≥ 90% | ≥ 90% | ≥ 90% | ≥ 90% | inhibition at 1 ppm [2]: ≥ 90%; inhibition at 1 ppm [3]: ≥ 90%; inhibition at 1 ppm [5]: ≥ 90%; pest or weed control at 5 ppm [6]: ≥ 90%; inhibition at 1 ppm [8]: ≥ 90%; inhibition at 1 ppm [9]: ≥ 90%; inhibition at 1 ppm [10]: ≥ 90%; inhibition at 1 ppm [11]: ≥ 90%; inhibition at 1 ppm [12]: ≥ 80%; pest or weed control at 5 ppm (black shank in potatoes): ≥ 90%; pest or weed control at 5 ppm (bacterial blight in rice): ≥ 80%
